These results are taken from patent US6955648B2, “Precision brain blood flow assessment remotely in real time using nanotechnology ultrasound” (New Health Sciences, Inc., priority 2000, dated 2005).

Structures are written as SMILES.

This assay relates to cerebral vessels. To be noted: person after first stroke. The method, then: A person with a history of hypertension experiences a first stroke in the left middle cerebral artery resulting in deficits in the right hand, leg, and some deficits in motor speech. These are the symptoms upon presentation in the neurological clinic. Transcranial Doppler analysis of all cerebral vessels is performed in addition to analyzing the common carotid artery and the internal carotid artery.
The physician considers prescription of Plavix together with a calcium channel blocker. Transcranial Doppler analysis was performed at monthly intervals. […] The physician subsequently administers a higher dose. Again, transcranial Doppler analysis is performed on all cerebral vessels.

The mark [1] stands for this setting: higher dose, transcranial Doppler on all cerebral vessels.

Regarding `COC(=O)[C@H](c1ccccc1Cl)N1CCc2sccc2C1` [Plavix], for the setting “Plavix +/− calcium channel blocker, initial dose, transcranial Doppler at monthly intervals”, the “effect on the cerebral vessels (changes in the individual cerebral vessels)” value was “no effect”. In addition, under setting [1], the auto-regulation curve result is listed as “left-shifts toward normal” and the pulsatility index entry is reported as “decreases”.
